How the values were obtained:
Details in all cases: 72 h
[1] = system: HepG2; experiment: cell viability relative to DMSO; higher = less toxic
[2] = system: U2OS; experiment: as above
[3] = system: Caco-2; experiment: as above
[4] = system: Vero E6; experiment: as above
[5] = system: Calu-3; experiment: as above
[6] = system: HepG2; experiment: relative viability EC50 (midpoint between 100% and the lowest measured viability); higher = less toxic
[7] = system: U2OS; experiment: as above
[8] = system: Caco-2; experiment: as above
[9] = system: Vero E6; experiment: as above
[10] = system: Calu-3; experiment: as above
[11] = system: HepG2; experiment: drug sensitivity score (DSS) for viability; higher = more toxic; extreme values may be limits of the assay
[12] = system: U2OS; experiment: as above
[13] = system: Caco-2; experiment: as above
[14] = system: Vero E6; experiment: as above
[15] = system: Calu-3; experiment: as above

SMILES | cell viability ([1]; 1 nM) [%] | cell viability ([1]; 10 nM) [%] | cell viability ([1]; 100 nM) [%] | cell viability ([1]; 1000 nM) [%] | cell viability ([1]; 10000 nM) [%] | cell viability ([2]; 1 nM) [%] | cell viability ([2]; 10 nM) [%] | cell viability ([2]; 100 nM) [%] | cell viability ([2]; 1000 nM) [%] | cell viability ([2]; 10000 nM) [%] | cell viability ([3]; 1 nM) [%] | cell viability ([3]; 10 nM) [%] | cell viability ([3]; 100 nM) [%] | cell viability ([3]; 1000 nM) [%] | cell viability ([3]; 10000 nM) [%] | cell viability ([4]; 1 nM) [%] | cell viability ([4]; 10 nM) [%] | cell viability ([4]; 100 nM) [%] | cell viability ([4]; 1000 nM) [%] | cell viability ([4]; 10000 nM) [%] | cell viability ([5]; 1 nM) [%] | cell viability ([5]; 10 nM) [%] | cell viability ([5]; 100 nM) [%] | cell viability ([5]; 1000 nM) [%] | cell viability ([5]; 10000 nM) [%] | relative viability EC50 [6] [µM] | relative viability EC50 [7] [µM] | relative viability EC50 [8] [µM] | relative viability EC50 [9] [µM] | relative viability EC50 [10] [µM] | drug sensitivity score [11] | drug sensitivity score [12] | drug sensitivity score [13] | drug sensitivity score [14] | drug sensitivity score [15]
COc1ccc(CCO[C@@H]2CCCC[C@H]2N2CC[C@@H](O)C2)cc1OC [vernakalant] | 89.2 | 112 | 99.2 | 100 | 110 | 102 | 94.1 | 103 | 95.2 | 101 | 101 | 91.2 | 93.9 | 101 | 106 | 97.8 | 97.3 | 91.7 | 98.6 | 106 | 111 | 97.1 | 106 | 104 | 109 | > 10 | > 10 | > 10 | > 10 | > 10 | 0 | 0 | 0 | 0 | 0
OCc1cc([C@@H](O)CNCCCCCCOCCOCc2c(Cl)cccc2Cl)ccc1O [vilanterol] | 97.8 | 96.5 | 89.5 | 104 | 109 | 96.8 | 96.1 | 101 | 100 | 94 | 94 | 93.5 | 96 | 96.2 | 94.3 | 95.3 | 99.7 | 89.2 | 98.9 | 107 | 99 | 100 | 89.8 | 102 | 97 | > 10 | > 10 | > 10 | > 10 | > 10 | 0 | 0 | 0 | 0 | 0
CC1(CN2CCC(n3c(=O)[nH]c4ccccc43)CC2)OCc2ccccc2-n2cccc21 (stereo not given) [zaldaride] | 94.9 | 96.4 | 86.6 | 104 | 76 | 102 | 94.6 | 98 | 95.7 | 99.1 | 99.6 | 91.6 | 101 | 88.1 | 93.1 | 98.9 | 97.7 | 98.7 | 100 | 89.9 | 86.3 | 96.1 | 101 | 84.7 | 94.5 | > 10 | > 10 | > 10 | > 10 | > 10 | 0.7 | 0 | 0 | 0 | 0
C[C@H](CSC(=O)c1ccccc1)C(=O)N1C[C@@H](Sc2ccccc2)C[C@H]1C(=O)O [zofenopril-calcium] | 101 | 108 | 94.7 | 102 | 95.3 | 98.4 | 102 | 99.6 | 95.1 | 101 | 86.1 | 94.3 | 106 | 96.6 | 99.6 | 114 | 99.9 | 103 | 101 | 106 | 92.9 | 90.7 | 105 | 96 | 88.3 | > 10 | > 10 | > 10 | > 10 | > 10 | 0 | 0 | 0 | 0 | 0.2
